The record followed here is PubChem BioAssay (NCI).

Test systems include SN12C renal; SK-MEL-2 melanoma; CCRF-CEM leukemia; UO-31 renal; HCC-2998 colon; SK-MEL-5 melanoma; HS 578T breast; IGROV1 ovarian; HCT-116 colon; M14 melanoma.
Assay in all cases: growth of human tumour cells (NCI), 48 h

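Exposure lasted 48 hours, with cells grown in 96-well plates and compounds tested at five concentrations. GI50 is the concentration that inhibits growth by half. TGI marks complete inhibition of growth.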

For `COc1cc2cc(C(=O)CCC(=O)O)sc2cc1OC`, the GI50 with SN12C renal, in the experiment with SK-MEL-2 melanoma, in the experiment with CCRF-CEM leukemia, in the experiment on UO-31 renal, with HCC-2998 colon and in the experiment on SK-MEL-5 melanoma was greater than 100 µM in each case. In addition, the GI50 in the experiment with HS 578T breast, in the experiment on IGROV1 ovarian, in the experiment on HCT-116 colon and in the experiment on M14 melanoma was greater than 100 µM in each case. For the same compound, the TGI in the experiment with SN12C renal, with SK-MEL-2 melanoma, with CCRF-CEM leukemia, with UO-31 renal, with HCC-2998 colon and in the experiment on SK-MEL-5 melanoma was greater than 100 µM in each case. The TGI in the experiment with HS 578T breast, with IGROV1 ovarian, in the experiment on HCT-116 colon and in the experiment with M14 melanoma was greater than 100 µM in each case.
As to `CC(C)c1c(C(=O)Nc2ccccc2)c(-c2ccccc2)c(-c2ccc(F)cc2)n1CC[C@@H]1CC=CC(=O)O1`, the GI50 in the experiment on SN12C renal was 1.01 µM; in the experiment with SK-MEL-2 melanoma, 1.87 µM; in the experiment with CCRF-CEM leukemia, 0.39 µM; with UO-31 renal, 1.28 µM; in the experiment on HCC-2998 colon, 1.92 µM; in the experiment on SK-MEL-5 melanoma it was 1.58 µM. In addition, the GI50 was 2.14 µM with HS 578T breast, 2.3 µM in the experiment on IGROV1 ovarian, 0.278 µM in the experiment with HCT-116 colon and 1 µM in the experiment on M14 melanoma. Further, the TGI with SN12C renal was determined as 3.82 µM; in the experiment with SK-MEL-2 melanoma, 3.43 µM; in the experiment on CCRF-CEM leukemia, 2.44 µM; in the experiment on UO-31 renal it was 2.57 µM; in the experiment on HCC-2998 colon, 3.5 µM; in the experiment on SK-MEL-5 melanoma it was 2.94 µM. Also, the TGI was 6.05 µM with HS 578T breast, 5.41 µM in the experiment on IGROV1 ovarian, 1.23 µM with HCT-116 colon and 2.48 µM in the experiment with M14 melanoma.
Consider `N#Cc1ncc(-c2ccc(C(F)(F)F)cc2)c(NCc2cc(C(F)(F)F)cc(C(F)(F)F)c2)n1`, for which the GI50 was 3.54 µM in the experiment on SN12C renal; 2.89 µM in the experiment with SK-MEL-2 melanoma; 2.26 µM in the experiment on CCRF-CEM leukemia; 2.89 µM with UO-31 renal; 4.17 µM in the experiment with HCC-2998 colon; 3.91 µM in the experiment on SK-MEL-5 melanoma. Further, the GI50 is 3.08 µM in the experiment with HS 578T breast, 5.95 µM in the experiment on IGROV1 ovarian, 2.93 µM with HCT-116 colon and 5.19 µM with M14 melanoma. Moreover, the TGI in the experiment on SN12C renal was greater than 100 µM; with SK-MEL-2 melanoma it was 7.15 µM; in the experiment on CCRF-CEM leukemia it was 49.8 µM; with UO-31 renal it was 54.4 µM; in the experiment on HCC-2998 colon, greater than 100 µM; in the experiment with SK-MEL-5 melanoma it was 15 µM. In addition, the TGI with HS 578T breast is 59.8 µM; in the experiment with IGROV1 ovarian, greater than 100 µM; in the experiment on HCT-116 colon, greater than 100 µM; in the experiment on M14 melanoma it was greater than 100 µM.
On to `CC(=O)N1N=C(c2ccc(Nc3nc(Nc4ccc(Cl)cc4)nc(Nc4ccc(Cl)cc4)n3)cc2)CC1c1ccc([N+](=O)[O-])cc1` (stereo not given), for which the GI50 in the experiment on SN12C renal is 13.4 µM; with SK-MEL-2 melanoma, 5.38 µM; with CCRF-CEM leukemia it was 2.92 µM; in the experiment on UO-31 renal, 4.29 µM; in the experiment with HCC-2998 colon it was 19.3 µM; with SK-MEL-5 melanoma, 3.22 µM. The GI50 was 7.7 µM in the experiment on HS 578T breast, 6.51 µM in the experiment on IGROV1 ovarian, 3.24 µM in the experiment with HCT-116 colon and 6.8 µM in the experiment with M14 melanoma. For the same compound, the TGI is greater than 100 µM with SN12C renal; greater than 45.6 µM in the experiment with SK-MEL-2 melanoma; greater than 32.2 µM in the experiment with CCRF-CEM leukemia; greater than 100 µM in the experiment on UO-31 renal; greater than 80.1 µM in the experiment with HCC-2998 colon; 15.8 µM in the experiment with SK-MEL-5 melanoma. For the same compound, the TGI is 97.7 µM in the experiment on HS 578T breast, greater than 65.6 µM in the experiment with IGROV1 ovarian, 34.8 µM with HCT-116 colon and 43.4 µM in the experiment on M14 melanoma.
As for `CCC[CH2][Sn]([CH2]CCC)([O]C(=O)c1cc(F)ccc1F)[O][Sn]([CH2]CCC)([CH2]CCC)[O]C(=O)c1cc(F)ccc1F`, the GI50 was 0.314 µM with SN12C renal; 0.18 µM in the experiment on SK-MEL-2 melanoma; 0.0113 µM in the experiment with CCRF-CEM leukemia; 0.54 µM with UO-31 renal; 0.669 µM with HCC-2998 colon; 0.626 µM with SK-MEL-5 melanoma. The GI50 was 0.237 µM in the experiment with HS 578T breast, 1.03 µM with IGROV1 ovarian, 0.293 µM in the experiment with HCT-116 colon and 0.367 µM in the experiment on M14 melanoma. Besides, the TGI was found to be 1.27 µM with SN12C renal; 0.496 µM in the experiment on SK-MEL-2 melanoma; 2.7 µM with CCRF-CEM leukemia; 1.78 µM in the experiment with UO-31 renal; 1.92 µM in the experiment on HCC-2998 colon; 1.83 µM with SK-MEL-5 melanoma. For the same compound, the TGI with HS 578T breast worked out at 0.994 µM; with IGROV1 ovarian, 2.33 µM; in the experiment on HCT-116 colon, 1.24 µM; in the experiment with M14 melanoma it was 1.25 µM.
With `N#C/C(=N\Nc1ccc(Cl)cc1)C(=O)Nc1cc(-c2ccccc2)nn1-c1ccccc1`, the GI50 in the experiment with SN12C renal is 2.44 µM; in the experiment on SK-MEL-2 melanoma, 2.39 µM; in the experiment with CCRF-CEM leukemia, 2.27 µM; in the experiment with UO-31 renal it was 2.93 µM; with HCC-2998 colon, 3.74 µM; with SK-MEL-5 melanoma, 1.63 µM. The GI50 with HS 578T breast was 3 µM; in the experiment on IGROV1 ovarian, 4.12 µM; with HCT-116 colon, 2.7 µM; in the experiment on M14 melanoma, 3.7 µM. The TGI in the experiment with SN12C renal was greater than 100 µM; in the experiment on SK-MEL-2 melanoma it was 8.89 µM; in the experiment with CCRF-CEM leukemia, greater than 100 µM; with UO-31 renal, greater than 100 µM; in the experiment on HCC-2998 colon it was greater than 100 µM; in the experiment with SK-MEL-5 melanoma it was 4.27 µM. Moreover, the TGI in the experiment with HS 578T breast, in the experiment on IGROV1 ovarian, with HCT-116 colon and with M14 melanoma was greater than 100 µM throughout.
Turning to `O=c1c2c3c(sc2n2c(-c4cc(-c5ccccc5)no4)nnc2n1Cc1ccccc1)CCCC3`, the GI50 in the experiment on SN12C renal is 22.7 µM; in the experiment with SK-MEL-2 melanoma, 4 µM; in the experiment on CCRF-CEM leukemia, 3.22 µM; with UO-31 renal it was 27.1 µM; in the experiment with HCC-2998 colon, 20.7 µM; with SK-MEL-5 melanoma it was 9.77 µM. For the same compound, the GI50 in the experiment with HS 578T breast was 18.7 µM; in the experiment on IGROV1 ovarian, 8.22 µM; in the experiment on HCT-116 colon it was 10.3 µM; with M14 melanoma, 27.2 µM. Also, the TGI in the experiment with SN12C renal is greater than 100 µM; in the experiment with SK-MEL-2 melanoma, 23.5 µM; in the experiment with CCRF-CEM leukemia, greater than 37.7 µM; in the experiment on UO-31 renal, greater than 100 µM; in the experiment on HCC-2998 colon, greater than 76.6 µM; in the experiment with SK-MEL-5 melanoma, 22.9 µM. For the same compound, the TGI was greater than 94.7 µM in the experiment on HS 578T breast, 87.6 µM in the experiment with IGROV1 ovarian, 24.5 µM with HCT-116 colon and greater than 100 µM in the experiment with M14 melanoma.
